Entries after “also recorded” stand apart in the source; their conditions may differ.
Key:
[1] = test system: hyaloid vasculature in zebrafish; assay: Zebrafish developmental angiogenesis assay: number of primary branches of hyaloid vasculature on dissected lens; type: in vivo; conditions: 10 μM, treated day 1-5, analysed 5 dpf
From the text: We have used the zebrafish model as an in vivo screen for chemical libraries as the small size and transparency of the zebra fish enables high-content screens in multi-well plate formats (MacRae and Peterson, 2003; Pichler et al., 2003; Peterson et al., 2004; den Hertog, 2005; Zon and Peterson, 2005). […] To identify anti-angiogenic drugs we used a transgenic line of zebrafish that expresses a fluorescent reporter (EGFP) specifically in vasculature (Tg(fli1:efgp)). This line was obtained from the Zebrafish International Resource Center. Our assay involved screening the effect of drugs in the library on the development of blood vessels in zebrafish. Specifically, we looked at the integrity of vessels developing in the eye (hyaloid vessels attached to the lens) and in the trunk.
All experiments were carried out under ethical approval granted by the UCD animal research ethics committee. Tg(fli1:EGFP) zebrafish were maintained according to standard procedures on a 14 hr light/10 hr dark cycle at 28° C. Referring to the schematic of FIG. 1A, embryos were obtained by natural spawning and developmental stages established by time and morphological criteria. A chemical library containing numerous compounds was screened (FIG. 1A). In this specific example, the chemical library contained 5000 compounds of the DIVERSet™ collection from ChemBridge Corp., USA. At 24 hours post fertilisation (hpf), 5 embryos per well were placed in […] of Embryo Medium/1% DMSO and incubated with drug at 28° C. on a 14 h light/10 h dark cycle. Larvae were euthanised, and fixed in 4% PFA at 4° C. overnight before analysis. (FIG. 1A).
Right lenses were dissected from the larvae and transferred to depression slides for observation under epi-fluorescence in the Olympus SZX16 and to cover-slip bottom Petri-dishes for confocal microscopy in a Zeiss UV510 META LSM system (20× and 40× inverted objectives). To achieve appropriate orientation, lenses were embedded in 10% methyl-cellulose and manipulated with a tungsten needle (0.5 mm diameter). Patterning of the hyaloid vessels on the treated larval lenses was compared to DMSO controls and the archetypal pattern previously described (Alvarez et al., 2007; Alvarez et al., 2009). The number of primary vessels radiating from the back of the lens (3-4 main branches at 5 dpf in controls and previously described), was counted and the average number was graphed for each drug. From screens of ˜1600 small molecules, four “hits” that inhibited the number of primary hyaloids vessels were identified (FIG. 1B).
To validate the “hits” from the library screen, dose-dependence experiments were conducted by screening the drugs in the assay described in Example 2 above but at a range of increasing concentrations between 1-10 μM. Larvae were maintained under the drug treatments at 28° C. on 14 hr light/10 hr dark cycle until 5 days post fertilisation (dpf), when they were euthanised and fixed in 4% PFA at 4° C. overnight before analysis. The average number of primary hyaloids branches was graphed for each concentration of drug. […] One of the lead compounds identified by the screen of chemical library was 11B which has the chemical name 2-[2-2-quinolinyl)vinyl]phenol and its structure shown below: […]

[2] = test system: dermal-derived normal human microvascular endothelial cells (HMVEC-d); assay: In vitro HMVEC-d tube formation assay on Matrigel; type: cell-based; conditions: 100 nM, 20 hr
Description: HMVEC-d were purchased from Clonetics, San Diego, Calif., USA. Cells were maintained in complete Endothelial Cell Medium (Clonetics® EGM®-2-MV BulletKit®) containing 500 ml of Endothelial Cell Basal Medium-2 and supplemented with hEGF, 0.5 ml; Hydrocortisone, 0.2 ml; GA-1000, 0.5 ml; FBS, 25 ml; VEGF, 0.5 ml; hFGF-B, 2.0 ml; R3-IGF-1, 0.5 ml; Ascorbic Acid, 0.5 ml in a 37° C. humidified atmosphere of 5% CO2/95% air. HMVEC-d were used for experiments between passages 4-8.
Matrigel (Becton Dickenson) basement membrane matrix was used to examine HMVEC-d tube formation. Matrigel (50 μl) was plated in 96 well culture plate wells after thawing on ice and allowed to polymerise at 37° C. 5% CO2 humidified atmosphere for 1 hr. HMVEC-d were removed from culture, trypsinised, and resuspended in full strength EGM growth medium. Cells were seeded at a density of 50×10^4 cells/cm^2 and incubated for 20 hr at 37° C. 5% CO2 humidified atmosphere. Endothelial cell tubule formation was assessed using phase contrast microscopy and photographed. A connecting branch between two discrete ECs was counted as one tube. The tube analysis was determined from 3 sequential fields (magnification×10) focusing on the surface of the matrigel.

[3] = test system: mouse model of oxygen induced retinopathy (OIR); assay: Mouse oxygen-induced retinopathy (OIR) model of ocular neovascularisation; type: in vivo; conditions: 2 μg/μl, postnatal day 12-17, intravitreal
Description: To assess the ability of compound 11B to inhibit ocular neovascularisation in mammalian eyes, 11B was tested in the mouse model of oxygen induced retinopathy (OIR). […] 11B was injected intravitreally into a mouse model of oxygen-induced retinopathy (OIR). The OIR model was generated by placing postnatal day 7 (P7) mouse pups into hyperoxia (75% oxygen) for 5 days and then removing them to normoxia (21%) on postnatal day 12 (P12). The hyperoxic (high oxygen) environment causes retinal blood vessels to regress between P7 and P12. The normoxic environment on P12 is a relatively hypoxic (low oxygen) environment for the mice and causes the growth of new blood vessels (angiogenesis). For all samples, eyes were enucleated, fixed, flat mounted and then stained with an isolectin antibody to visualise the blood vessels. Blood vessels were quantified and those treated with lead compounds compared to controls.

In the case of `COc1cc2c(cc1OC)C(c1ccc3c(c1)OCO3)N(C)CC2` (racemic) [11F-522, 1-(1,3-benzodioxol-5-yl)-6,7-dimethoxy-2-methyl-1,2,3,4-tetrahydroisoquinoline], the “number of primary branches of hyaloid vasculature” value (shortened to “number”) [1] is reported as “inhibited developmental angiogenesis; also recorded: significant (p<0.05) reduction; also recorded: significant inhibition; also recorded: significantly reduce”.

`COc1cc2c(cc1OC)[C@@H](c1ccc3c(c1)OCO3)N(C)CC2` (single isomer, unassigned) [11F-522R] was tested, and the “number” value [1] was “significant (p<0.05) reduction; also recorded: significantly reduce”.

`COc1cc2c(cc1OC)[C@H](c1ccc3c(c1)OCO3)N(C)CC2` (single isomer, unassigned) [11F-522S] was tested, and the “number” value [1] was “did not reduce”.

With `Oc1ccc(/C=C\c2ccnc3ccccc23)cc1` [11B-799, 4-[2-(4-quinolinyl)vinyl]phenol] the “number” value [1] was “inhibits developmental angiogenesis; also recorded: significant inhibition”.

“Avastin: clinically used anti-angiogenic monoclonal antibody, anti-VEGF [reference compound]” was tested, and the “inhibition of HMVEC-d tubule formation” value [2] was “significantly inhibited” and the “avascular area of the retina in treated eyes” value [3] was roughly 22%.

Source: patent US8916586B2, “Anti-angiogenic compound” (University College Dublin—National University of Ireland, …, priority 2011, dated 2014)
